Assay results published in PMC10305119, “Analogs of 6-Bromohypaphorine with Increased Agonist Potency for α7 Nicotinic Receptor as Anti-Inflammatory Analgesic Agents” (Marine Drugs, 2023).
“Also recorded” adds a separate entry of the source.

Key:
[1] = system: myocardial infarction model; parameters: method as in PMID 35538277; conditions: cited from earlier work
STAT3 phosphorylation = STAT3 phosphorylation in LPS-stimulated macrophages (flow cytometry); format: cell-based, human; conditions: compound 1 h, then LPS 3 h; control MFI 49
Protocol: To gain an insight into the signaling induced by the tested compounds, ERK1/2 and STAT3 phosphorylation was checked. Macrophages were treated with tested compounds for 1 h, after which they were stimulated with LPS for 3 h.
(§1) Peripheral blood mononuclear cells (PBMCs) were separated by Ficoll-Paque PLUS density gradient centrifugation. PBMCs were placed in a sterile Petri dish and incubated at 37 °C for 2 h. Unattached cells were then removed by washing with PBS and substituted with fresh complete RPMI 1640 medium. To generate monocyte-derived macrophages (MDMs), 50 ng/mL GM-CSF was added to the isolated monocytes and cultured for 6 days to differentiate them into non-polarized MDMs.
Figure 5 Effects of the analyzed compounds on signaling pathways in LPS-stimulated macrophages. Cells were treated with PNU 282987, hypaphorine, or 6-iodohypaphorine methyl ester (6ID) for 1 h and then stimulated with LPS for 3 h. Phosphorylated ERK1/2 and STAT3 were quantified by flow cytometry with specific antibodies. […] (c): Representative histogram showing the increase in ERK 1/2 phosphorylation in comparison to control. The numbers in the histograms show the MFI ± SD (n = 3). MFI—geometrical mean fluorescence intensity. One-way ANOVA tests with Tukey post hoc test: * p ˂ 0.05, ** p ˂ 0.01, *** p < 0.001 in comparison with untreated cells. TEXT PRINTED IN THE PICTURE: (c) Control: PE-ERK 1/2 Phospho: 193.7±1.5 | (c) PNU 282987: PE-ERK 1/2 Phospho: 251.3±13.7 | (c) Hy: PE-ERK 1/2 Phospho: 246.0±15.7 | (c) 6ID: PE-ERK 1/2 Phospho: 273.7±8.1 DOUBTS OF THE COPYIST ABOUT THIS PICTURE: Panel c: no measure or unit is printed beside the numbers; the x-axis label "PE-ERK 1/2 Phospho" is used as the measure / "Control" is the untreated reference rather than a substance; it is included because a value is printed with it

[2] = target: T1, human α3-containing nAChRs (Homo sapiens, UniProt P32297); assay: Calcium imaging of α3-containing nAChRs in SH-SY5Y cells (nicotine-induced calcium rise); format: cell-based
T1 construct: endogenous in cells; host or cells: human neuroblastoma SH-SY5Y
Protocol: Two of the studied compounds with high and medium agonist potency for α7 nAChR (6CF and 6ID, Table 1) were tested for activity toward α3* nAChR by calcium imaging.
Normalized data are presented as mean ± standard error. n = 6–7.

[3] = system: CD86 expression on macrophages; assay: Flow cytometry of CD86 protein on macrophages; format: cell-based, human; conditions: 48 h incubation
Protocol: The effect of the above-listed compounds on the expression of the TLR4 receptor and the CD86 protein was studied by flow cytometry after 48 h incubation with macrophages. The interaction of bacterial endotoxins with the TLR4 receptor is known to activate the expression of several pro-inflammatory cytokine genes, while the co-stimulatory molecule CD86 plays an important role in […] inflammatory responses. A decrease in the expression of the TLR4 receptor was observed under the action of all tested compounds (Figure 4c,e), the rank order of these TLR4-suppressing effects was as follows: hypaphorine (14%) < PNU 282,987 (21%) < 6ID (31%).
as §1
Figure 4 The effects of PNU 282987, hypaphorine, and D-6-iodohypaphorine methyl ester (6ID) on macrophage membrane proteins expression. Cells were treated with these compounds for 48 h and then analyzed by flow cytometry. PNU 282,987 led to an increase in the (a) CD11b and (b) CD11c expression. (c): All tested compounds led to a decrease in TLR4 expression. (d): Macrophages stimulation with hypaphorine and 6ID promoted an increase in CD86 expression. Results obtained in three independent experiments on macrophages from different donors and presented as mean ± SD. One-way ANOVA tests with Tukey post hoc test: * p ˂0.05, ** p ˂ 0.01, **** p < 0.0001 in comparison with untreated cells.

α9α10 nAChR = target: T2, α9α10 nAChR (Homo sapiens, UniProt Q9GZZ6+Q9UGM1); assay: Two-electrode voltage-clamp on α9/α10 nAChR in Xenopus oocytes; format: cell-based
T2 construct: expressed in transfected cells; host or cells: Xenopus oocytes injected with in vitro transcribed RNA
Protocol: Recordings were performed using Axopatch 200 amplifier in two-electrode voltage-clamp setup (Molecular Devices, LLC, San Jose, CA, USA) on oocytes removed from mature Xenopus frogs. Two to three days before taking recordings, oocytes were injected with in vitro transcribed RNA, coding α9 and α10 nAChR and kept at 18 °C in ND96 electrophysiology buffer solution (5 mM HEPES/NaOH at pH 7.6 and 18 °C, 96 mM NaCl, 2 mM KCl, 1.8 mM CaCl2, 2 mM MgCl2).

T1 sequence (P32297 32-505): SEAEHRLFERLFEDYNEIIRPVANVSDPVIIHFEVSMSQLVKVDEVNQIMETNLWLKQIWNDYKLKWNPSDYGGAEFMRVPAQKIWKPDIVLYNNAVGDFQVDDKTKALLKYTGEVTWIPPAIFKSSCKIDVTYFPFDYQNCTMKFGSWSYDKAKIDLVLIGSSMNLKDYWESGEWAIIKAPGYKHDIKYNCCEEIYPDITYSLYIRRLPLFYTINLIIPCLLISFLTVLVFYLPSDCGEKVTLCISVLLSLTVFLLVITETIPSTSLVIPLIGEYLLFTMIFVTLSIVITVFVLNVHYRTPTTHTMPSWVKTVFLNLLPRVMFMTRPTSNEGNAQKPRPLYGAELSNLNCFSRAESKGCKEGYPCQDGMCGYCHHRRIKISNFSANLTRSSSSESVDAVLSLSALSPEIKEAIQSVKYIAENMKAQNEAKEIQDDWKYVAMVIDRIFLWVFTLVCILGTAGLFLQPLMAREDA
T2 sequence (Q9UGM1 26-479 limits assumed): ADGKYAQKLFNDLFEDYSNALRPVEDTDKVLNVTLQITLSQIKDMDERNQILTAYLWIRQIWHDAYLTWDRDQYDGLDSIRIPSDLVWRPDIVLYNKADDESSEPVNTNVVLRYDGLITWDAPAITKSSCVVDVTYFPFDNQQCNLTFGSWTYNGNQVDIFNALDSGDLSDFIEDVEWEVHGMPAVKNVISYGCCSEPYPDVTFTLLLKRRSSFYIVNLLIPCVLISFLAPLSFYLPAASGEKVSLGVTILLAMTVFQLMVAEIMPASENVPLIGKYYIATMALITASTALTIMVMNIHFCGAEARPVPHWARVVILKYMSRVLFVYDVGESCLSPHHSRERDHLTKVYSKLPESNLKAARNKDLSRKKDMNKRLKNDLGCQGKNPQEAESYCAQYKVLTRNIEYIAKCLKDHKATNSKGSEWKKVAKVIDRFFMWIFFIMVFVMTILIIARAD
T2 sequence (Q9GZZ6 25-450): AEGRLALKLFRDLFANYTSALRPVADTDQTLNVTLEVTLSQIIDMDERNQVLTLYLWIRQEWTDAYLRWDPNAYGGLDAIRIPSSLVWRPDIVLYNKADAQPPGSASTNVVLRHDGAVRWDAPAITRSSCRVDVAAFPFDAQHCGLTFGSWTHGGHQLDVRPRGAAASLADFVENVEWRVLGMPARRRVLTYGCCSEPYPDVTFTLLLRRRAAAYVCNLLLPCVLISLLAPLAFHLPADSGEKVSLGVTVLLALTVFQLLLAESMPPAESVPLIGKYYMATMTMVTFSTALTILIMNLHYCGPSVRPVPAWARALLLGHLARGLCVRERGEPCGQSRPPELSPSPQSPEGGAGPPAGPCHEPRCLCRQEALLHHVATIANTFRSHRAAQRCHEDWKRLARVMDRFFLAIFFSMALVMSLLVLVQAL

Row | Compound | effect in myocardial infarction model [1] | STAT3 phosphorylation, MFI (STAT3 phosphorylation) | agonism on α3* nAChR (calcium response) ([2]; compound alone, listed as 6ID) | IC50 ([2]; inhibition of nicotine (100 μM)-induced calcium rise) | increase in the expression of CD86 [3] | activity toward α9α10 nAChR (α9α10 nAChR)
1 | COC(=O)C(Cc1c[nH]c2cc([N+](=O)[O-])ccc12)[N+](C)(C)C (stereo not shown) [Compound 5, methyl ester of 6-nitrohypaphorine] | significant positive effect |  |  |  |  | 
2 | C[N+](C)(C)[C@H](Cc1c[nH]c2ccccc12)C(=O)[O-] [Compound 16, L-hypaphorine, reference compound] |  | increase in the phosphorylation |  |  |  | 
3 | COC(=O)[C@@H](Cc1c[nH]c2cc(I)ccc12)[N+](C)(C)C [Compound 1, (D)-6-iodohypaphorine methyl ester] |  | 58 | does not evoke noticeable calcium response in range of 3–30 μM; also recorded: Neither 6ID, which was most active agonist of α7 nAChR, nor 6CF showed detectable agonism on α3* nAChR at concentrations up to 30 µM | 4.4 ± 1 µM | 21% | almost inactive
